Assay results as given in ChEMBL document CHEMBL4507297, “Data for DCP probe PF-04457845” (2021).

Experiments:
[1] = biological target: Calcium-dependent protein kinase 1 (Plasmodium falciparum) (UniProt P62344); conditions: Compound concentration 1000.0 nM
[2] = biological target: STE20/SPS1-related proline-alanine-rich protein kinase (Homo sapiens) (UniProt Q9UEW8); conditions: Compound concentration 1000.0 nM
[3] = biological target: LIM domain kinase 2 (Homo sapiens) (UniProt P53671); conditions: Compound concentration 1000.0 nM
[4] = biological target: Serine/threonine-protein kinase 26 (Homo sapiens) (UniProt Q9P289); conditions: Compound concentration 1000.0 nM
[5] = biological target: Rho-associated protein kinase 1 (Homo sapiens) (UniProt Q13464); conditions: Compound concentration 1000.0 nM
[6] = biological target: Serine/threonine-protein kinase MARK1 (Homo sapiens) (UniProt Q9P0L2); conditions: Compound concentration 1000.0 nM
[7] = biological target: Dual specificity protein kinase CLK4 (Homo sapiens) (UniProt Q9HAZ1); conditions: Compound concentration 1000.0 nM
[8] = test system: Mast/stem cell growth factor receptor Kit (Homo sapiens), P10721 [L576P]; conditions: Compound concentration 1000.0 nM
[9] = biological target: Serine/threonine-protein kinase TAO1 (Homo sapiens) (UniProt Q7L7X3); conditions: Compound concentration 1000.0 nM
[10] = biological target: Serine/threonine-protein kinase VRK2 (Homo sapiens) (UniProt Q86Y07); conditions: Compound concentration 1000.0 nM
[11] = biological target: Dual specificity mitogen-activated protein kinase kinase 4 (Homo sapiens) (UniProt P45985); conditions: Compound concentration 1000.0 nM
[12] = biological target: Serine/threonine-protein kinase OSR1 (Homo sapiens) (UniProt O95747); conditions: Compound concentration 1000.0 nM
[13] = biological target: Serine/threonine-protein kinase Nek7 (Homo sapiens) (UniProt Q8TDX7); conditions: Compound concentration 1000.0 nM
[14] = biological target: Serine/threonine-protein kinase 35 (Homo sapiens) (UniProt Q8TDR2); conditions: Compound concentration 1000.0 nM
[15] = test system: Phosphatidylinositol 4,5-bisphosphate 3-kinase catalytic subunit alpha isoform (Homo sapiens), P42336 [C420R]; conditions: Compound concentration 1000.0 nM
[16] = biological target: Receptor-interacting serine/threonine-protein kinase 2 (Homo sapiens) (UniProt O43353); conditions: Compound concentration 1000.0 nM
[17] = biological target: 5-hydroxytryptamine receptor 1D (Homo sapiens) (UniProt P28221); conditions: Compound concentration 10.0 uM
[18] = biological target: Mitogen-activated protein kinase kinase kinase 6 (Homo sapiens) (UniProt O95382); conditions: Compound concentration 1000.0 nM
[19] = biological target: Casein kinase I isoform gamma-2 (Homo sapiens) (UniProt P78368); conditions: Compound concentration 1000.0 nM
[20] = biological target: Protein kinase C delta type (Homo sapiens) (UniProt Q05655); conditions: Compound concentration 1000.0 nM
[21] = biological target: Serine/threonine-protein kinase WNK3 (Homo sapiens) (UniProt Q9BYP7); conditions: Compound concentration 1000.0 nM
[22] = biological target: Cyclin-dependent kinase 2 homolog (Plasmodium falciparum (isolate 3D7)) (UniProt P61075); conditions: Compound concentration 1000.0 nM
[23] = biological target: Beta-2 adrenergic receptor (Homo sapiens) (UniProt P07550); conditions: Compound concentration 10.0 uM
[24] = biological target: Non-receptor tyrosine-protein kinase TNK1 (Homo sapiens) (UniProt Q13470); conditions: Compound concentration 1000.0 nM
[25] = biological target: Cyclin-dependent kinase-like 2 (Homo sapiens) (UniProt Q92772); conditions: Compound concentration 1000.0 nM
[26] = biological target: Tyrosine-protein kinase JAK3 (Homo sapiens) (UniProt P52333); conditions: Compound concentration 1000.0 nM
[27] = test system: eIF-2-alpha kinase GCN2 (Homo sapiens), Q9P2K8 [S808G]; conditions: Compound concentration 1000.0 nM
[28] = biological target: Serine/threonine-protein kinase 25 (Homo sapiens) (UniProt O00506); conditions: Compound concentration 1000.0 nM
[29] = biological target: Mitogen-activated protein kinase kinase kinase kinase 5 (Homo sapiens) (UniProt Q9Y4K4); conditions: Compound concentration 1000.0 nM
[30] = biological target: Histamine H1 receptor (Homo sapiens) (UniProt P35367); conditions: Compound concentration 10.0 uM
[31] = biological target: Tyrosine-protein kinase Yes (Homo sapiens) (UniProt P07947); conditions: Compound concentration 1000.0 nM
[32] = biological target: Serine/threonine-protein kinase Nek6 (Homo sapiens) (UniProt Q9HC98); conditions: Compound concentration 1000.0 nM
[33] = biological target: Dual specificity mitogen-activated protein kinase kinase 3 (Homo sapiens) (UniProt P46734); conditions: Compound concentration 1000.0 nM
[34] = biological target: T1, Muscarinic acetylcholine receptor M2 (Homo sapiens) (UniProt P08172); conditions: Compound concentration 10.0 uM
T1 sequence (whole entry): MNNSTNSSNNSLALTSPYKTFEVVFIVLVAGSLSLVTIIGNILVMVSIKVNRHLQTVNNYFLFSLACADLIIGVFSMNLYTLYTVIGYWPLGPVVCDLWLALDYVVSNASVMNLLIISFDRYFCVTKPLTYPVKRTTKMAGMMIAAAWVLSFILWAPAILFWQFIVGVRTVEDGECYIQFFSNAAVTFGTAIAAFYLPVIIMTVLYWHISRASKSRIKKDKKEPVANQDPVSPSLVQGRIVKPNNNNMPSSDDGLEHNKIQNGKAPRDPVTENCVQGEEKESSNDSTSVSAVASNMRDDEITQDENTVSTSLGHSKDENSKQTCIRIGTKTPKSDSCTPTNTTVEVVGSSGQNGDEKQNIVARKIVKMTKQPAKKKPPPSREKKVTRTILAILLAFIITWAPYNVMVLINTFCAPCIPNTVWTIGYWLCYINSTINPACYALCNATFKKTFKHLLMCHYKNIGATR

[35] = biological target: cAMP-dependent protein kinase catalytic subunit alpha (Homo sapiens) (UniProt P17612); conditions: Compound concentration 1000.0 nM
[36] = biological target: Mitogen-activated protein kinase kinase kinase 5 (Homo sapiens) (UniProt Q99683); conditions: Compound concentration 1000.0 nM
[37] = biological target: Mitogen-activated protein kinase kinase kinase 20 (Homo sapiens) (UniProt Q9NYL2); conditions: Compound concentration 1000.0 nM
[38] = biological target: Fibroblast growth factor receptor 1 (Homo sapiens) (UniProt P11362); conditions: Compound concentration 1000.0 nM

Chain of Casein kinase I isoform gamma-2 (Homo sapiens) (P78368 whole entry, looked up, canonical isoform): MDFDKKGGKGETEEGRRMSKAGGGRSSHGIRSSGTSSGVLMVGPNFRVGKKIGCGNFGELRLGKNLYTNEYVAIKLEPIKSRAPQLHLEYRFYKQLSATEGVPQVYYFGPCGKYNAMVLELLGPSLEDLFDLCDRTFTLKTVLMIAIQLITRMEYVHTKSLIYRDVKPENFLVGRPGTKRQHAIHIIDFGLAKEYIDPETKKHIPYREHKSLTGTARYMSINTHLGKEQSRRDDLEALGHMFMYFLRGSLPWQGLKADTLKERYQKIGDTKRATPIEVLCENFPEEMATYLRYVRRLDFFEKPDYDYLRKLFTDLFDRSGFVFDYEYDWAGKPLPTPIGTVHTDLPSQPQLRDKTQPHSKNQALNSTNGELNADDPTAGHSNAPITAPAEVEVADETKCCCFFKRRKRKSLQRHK
Chain of eIF-2-alpha kinase GCN2 (Homo sapiens), Q9P2K8 [S808G] (Q9P2K8 whole entry S808G): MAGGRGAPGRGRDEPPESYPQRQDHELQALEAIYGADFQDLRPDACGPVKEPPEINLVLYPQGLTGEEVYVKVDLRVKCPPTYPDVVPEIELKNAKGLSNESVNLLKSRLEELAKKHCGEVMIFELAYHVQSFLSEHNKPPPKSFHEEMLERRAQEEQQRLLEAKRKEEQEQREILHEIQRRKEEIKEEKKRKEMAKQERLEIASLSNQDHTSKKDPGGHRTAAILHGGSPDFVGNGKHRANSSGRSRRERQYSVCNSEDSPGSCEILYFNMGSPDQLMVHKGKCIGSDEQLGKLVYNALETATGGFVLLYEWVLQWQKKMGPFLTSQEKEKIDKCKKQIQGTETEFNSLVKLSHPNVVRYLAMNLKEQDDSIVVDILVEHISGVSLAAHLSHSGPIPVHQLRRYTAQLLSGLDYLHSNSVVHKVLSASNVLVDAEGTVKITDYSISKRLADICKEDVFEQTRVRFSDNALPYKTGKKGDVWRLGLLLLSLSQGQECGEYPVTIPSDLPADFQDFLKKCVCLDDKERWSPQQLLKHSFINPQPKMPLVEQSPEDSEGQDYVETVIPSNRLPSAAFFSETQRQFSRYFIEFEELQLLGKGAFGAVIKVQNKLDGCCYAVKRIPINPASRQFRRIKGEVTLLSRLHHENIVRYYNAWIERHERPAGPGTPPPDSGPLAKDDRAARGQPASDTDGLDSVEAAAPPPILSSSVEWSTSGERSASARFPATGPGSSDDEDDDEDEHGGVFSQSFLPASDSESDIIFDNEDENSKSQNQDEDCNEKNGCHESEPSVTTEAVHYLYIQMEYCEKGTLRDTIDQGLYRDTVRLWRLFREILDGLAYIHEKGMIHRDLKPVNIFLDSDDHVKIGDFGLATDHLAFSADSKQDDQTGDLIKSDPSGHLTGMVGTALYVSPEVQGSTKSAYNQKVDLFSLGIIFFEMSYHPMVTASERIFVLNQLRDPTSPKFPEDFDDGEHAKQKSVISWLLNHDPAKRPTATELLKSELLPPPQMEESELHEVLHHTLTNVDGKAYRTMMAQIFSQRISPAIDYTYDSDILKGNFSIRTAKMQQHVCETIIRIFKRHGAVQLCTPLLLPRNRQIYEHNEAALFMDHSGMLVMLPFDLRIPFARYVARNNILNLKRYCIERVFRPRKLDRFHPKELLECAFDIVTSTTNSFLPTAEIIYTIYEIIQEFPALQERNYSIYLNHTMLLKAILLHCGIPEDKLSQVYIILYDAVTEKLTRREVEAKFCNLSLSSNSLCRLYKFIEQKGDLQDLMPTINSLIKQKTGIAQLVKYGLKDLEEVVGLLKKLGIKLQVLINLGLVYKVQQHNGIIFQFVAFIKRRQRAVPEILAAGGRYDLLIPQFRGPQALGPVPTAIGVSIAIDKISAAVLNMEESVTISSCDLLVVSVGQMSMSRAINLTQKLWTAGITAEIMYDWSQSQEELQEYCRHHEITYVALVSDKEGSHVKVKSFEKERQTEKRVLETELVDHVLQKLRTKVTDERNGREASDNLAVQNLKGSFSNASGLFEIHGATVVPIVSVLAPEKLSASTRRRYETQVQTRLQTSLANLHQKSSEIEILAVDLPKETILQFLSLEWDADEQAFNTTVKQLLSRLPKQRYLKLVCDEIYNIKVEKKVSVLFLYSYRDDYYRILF
Chain of Histamine H1 receptor (Homo sapiens) (P35367 whole entry): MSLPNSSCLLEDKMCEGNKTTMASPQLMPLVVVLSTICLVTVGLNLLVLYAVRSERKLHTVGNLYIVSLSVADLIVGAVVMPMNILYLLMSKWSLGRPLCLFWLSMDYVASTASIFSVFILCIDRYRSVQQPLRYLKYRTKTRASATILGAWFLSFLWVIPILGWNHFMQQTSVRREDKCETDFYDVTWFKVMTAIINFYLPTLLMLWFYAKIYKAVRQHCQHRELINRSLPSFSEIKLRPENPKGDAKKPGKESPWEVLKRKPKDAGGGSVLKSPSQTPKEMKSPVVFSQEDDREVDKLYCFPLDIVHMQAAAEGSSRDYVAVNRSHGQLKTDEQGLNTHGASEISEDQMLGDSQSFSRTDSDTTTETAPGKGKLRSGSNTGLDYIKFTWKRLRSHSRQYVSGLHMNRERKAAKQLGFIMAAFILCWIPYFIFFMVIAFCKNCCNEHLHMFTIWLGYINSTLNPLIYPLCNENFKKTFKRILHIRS
Chain of Dual specificity protein kinase CLK4 (Homo sapiens) (Q9HAZ1 whole entry, looked up): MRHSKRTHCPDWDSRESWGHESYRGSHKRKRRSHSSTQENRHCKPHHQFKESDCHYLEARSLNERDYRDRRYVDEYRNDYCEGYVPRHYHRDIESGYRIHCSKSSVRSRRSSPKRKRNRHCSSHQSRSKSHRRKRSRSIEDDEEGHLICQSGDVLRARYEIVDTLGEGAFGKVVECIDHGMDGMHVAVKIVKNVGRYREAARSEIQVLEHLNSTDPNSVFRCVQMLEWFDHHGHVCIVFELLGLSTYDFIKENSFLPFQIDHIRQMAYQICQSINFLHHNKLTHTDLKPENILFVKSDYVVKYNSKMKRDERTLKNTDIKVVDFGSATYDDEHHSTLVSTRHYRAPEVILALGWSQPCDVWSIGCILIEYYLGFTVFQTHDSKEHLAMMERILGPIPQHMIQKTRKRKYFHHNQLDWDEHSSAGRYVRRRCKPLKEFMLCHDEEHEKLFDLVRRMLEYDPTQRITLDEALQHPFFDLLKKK
Chain of Dual specificity mitogen-activated protein kinase kinase 4 (Homo sapiens) (P45985 whole entry): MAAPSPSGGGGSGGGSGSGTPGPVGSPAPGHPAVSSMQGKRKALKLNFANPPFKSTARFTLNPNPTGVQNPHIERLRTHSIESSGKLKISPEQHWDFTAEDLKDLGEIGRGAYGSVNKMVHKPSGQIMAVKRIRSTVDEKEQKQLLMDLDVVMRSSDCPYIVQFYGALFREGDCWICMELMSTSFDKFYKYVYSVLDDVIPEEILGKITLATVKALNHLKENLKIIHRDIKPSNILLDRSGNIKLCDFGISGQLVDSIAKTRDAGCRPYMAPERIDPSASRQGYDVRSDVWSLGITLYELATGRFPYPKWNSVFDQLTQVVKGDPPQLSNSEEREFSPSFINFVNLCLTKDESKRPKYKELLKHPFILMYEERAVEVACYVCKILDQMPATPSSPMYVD
Chain of Protein kinase C delta type (Homo sapiens) (Q05655 whole entry, looked up): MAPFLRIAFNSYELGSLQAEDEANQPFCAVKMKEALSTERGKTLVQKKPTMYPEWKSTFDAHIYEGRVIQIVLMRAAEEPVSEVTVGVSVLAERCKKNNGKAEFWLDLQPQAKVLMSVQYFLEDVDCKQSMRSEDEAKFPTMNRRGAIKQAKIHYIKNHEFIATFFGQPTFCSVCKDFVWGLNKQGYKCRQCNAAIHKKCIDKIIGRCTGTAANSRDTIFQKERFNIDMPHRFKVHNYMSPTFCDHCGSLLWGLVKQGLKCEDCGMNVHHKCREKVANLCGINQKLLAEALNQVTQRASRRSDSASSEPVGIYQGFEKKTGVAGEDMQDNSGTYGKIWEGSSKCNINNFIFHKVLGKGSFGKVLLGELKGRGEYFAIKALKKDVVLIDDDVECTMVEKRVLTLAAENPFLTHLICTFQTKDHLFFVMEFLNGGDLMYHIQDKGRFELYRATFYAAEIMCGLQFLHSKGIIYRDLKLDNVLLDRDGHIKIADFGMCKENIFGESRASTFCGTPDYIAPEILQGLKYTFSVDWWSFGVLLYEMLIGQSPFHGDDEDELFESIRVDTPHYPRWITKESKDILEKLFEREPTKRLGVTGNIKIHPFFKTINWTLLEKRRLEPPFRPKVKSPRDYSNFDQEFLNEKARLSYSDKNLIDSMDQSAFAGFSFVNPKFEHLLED
Chain of Cyclin-dependent kinase-like 2 (Homo sapiens) (Q92772 whole entry): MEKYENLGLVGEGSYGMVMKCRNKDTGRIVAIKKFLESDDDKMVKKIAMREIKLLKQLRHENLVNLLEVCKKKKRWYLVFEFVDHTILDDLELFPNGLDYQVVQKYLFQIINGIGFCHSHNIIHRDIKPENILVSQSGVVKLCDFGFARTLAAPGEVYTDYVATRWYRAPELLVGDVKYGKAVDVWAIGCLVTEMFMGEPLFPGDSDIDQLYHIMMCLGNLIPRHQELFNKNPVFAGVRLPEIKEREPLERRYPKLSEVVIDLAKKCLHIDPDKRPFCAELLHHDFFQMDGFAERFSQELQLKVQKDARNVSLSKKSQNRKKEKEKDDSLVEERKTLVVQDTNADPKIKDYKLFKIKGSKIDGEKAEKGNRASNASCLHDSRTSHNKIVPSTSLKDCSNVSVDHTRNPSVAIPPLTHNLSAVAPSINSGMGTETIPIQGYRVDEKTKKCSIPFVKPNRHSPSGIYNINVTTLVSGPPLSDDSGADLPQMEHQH
Chain of Serine/threonine-protein kinase 25 (Homo sapiens) (O00506 whole entry, looked up): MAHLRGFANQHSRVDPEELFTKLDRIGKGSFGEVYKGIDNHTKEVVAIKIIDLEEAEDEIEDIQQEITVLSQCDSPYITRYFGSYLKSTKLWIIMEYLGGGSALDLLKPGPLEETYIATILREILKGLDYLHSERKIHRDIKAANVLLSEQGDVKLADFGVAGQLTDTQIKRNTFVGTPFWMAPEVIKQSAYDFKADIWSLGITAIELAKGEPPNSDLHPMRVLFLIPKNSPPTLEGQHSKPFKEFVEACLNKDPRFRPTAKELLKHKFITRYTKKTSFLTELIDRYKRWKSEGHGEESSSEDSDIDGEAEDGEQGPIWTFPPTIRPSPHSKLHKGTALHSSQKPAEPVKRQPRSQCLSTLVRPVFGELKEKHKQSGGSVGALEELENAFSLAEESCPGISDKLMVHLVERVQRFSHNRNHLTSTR

O=C(Nc1cccnn1)N1CC(C/C=C/c2cncc(Oc3ccc(C(F)(F)F)cn3)n2)C1
inactive: residual activity [1] 99% | residual activity [2] 77% | residual activity [3] 95% | residual activity [4] 71% | residual activity [5] 82% | residual activity [6] 100% | residual activity [7] 98% | residual activity [8] 88% | residual activity [9] 91% | residual activity [10] 97% | residual activity [11] 74% | residual activity [12] 71% | residual activity [13] 100% | residual activity [14] 94% | residual activity [15] 66% | residual activity [16] 93% | inhibition [17] -2.98% | residual activity [18] 60% | residual activity [19] 100% | residual activity [20] 100% | residual activity [21] 84% | residual activity [22] 93% | inhibition [23] 16.8% | residual activity [24] 100% | residual activity [25] 100% | residual activity [26] 100% | residual activity [27] 97% | residual activity [28] 91% | residual activity [29] 94% | inhibition [30] 30.9% | residual activity [31] 100% | residual activity [32] 100% | residual activity [33] 72% | inhibition [34] 20.7% | residual activity [35] 93% | residual activity [36] 98% | residual activity [37] 100% | residual activity [38] 100%

O=C(Nc1cccnn1)N1CCC(=Cc2cccc(Oc3ccc(C(F)(F)F)cn3)c2)CC1
active: residual activity [8] 0%
inactive: residual activity [1] 93% | residual activity [2] 100% | residual activity [3] 88% | residual activity [4] 100% | residual activity [5] 100% | residual activity [6] 84% | residual activity [7] 70% | residual activity [9] 100% | residual activity [10] 100% | residual activity [11] 100% | residual activity [12] 100% | residual activity [13] 100% | residual activity [14] 100% | residual activity [15] 100% | residual activity [16] 94% | inhibition [17] 42.1% | residual activity [18] 100% | residual activity [19] 92% | residual activity [20] 93% | residual activity [21] 100% | residual activity [22] 100% | inhibition [23] 0.51% | residual activity [24] 98% | residual activity [25] 92% | residual activity [26] 100% | residual activity [27] 87% | residual activity [28] 100% | residual activity [29] 100% | inhibition [30] 27.2% | residual activity [31] 100% | residual activity [32] 100% | residual activity [33] 100% | inhibition [34] 20.8% | residual activity [35] 100% | residual activity [36] 100% | residual activity [37] 95% | residual activity [38] 100%
